Measurements published in patent US20100178700A1, “NOVEL THYMIC CELLULAR POPULATIONS AND USES THEREOF” (priority 2007, published 2010).
“Also recorded” adds a separate entry of the source. Read-outs that look alike come from different tables or passages of the source.

Assays:
thymic epithelial cells [1] = experiment: Thymic epithelial cell (TEC) subsets by flow cytometry after drug-induced thymic damage; conditions: for effect on TEC subsets: mice, i.p. treatment
Method: (§1) Control mice were injected with the same volume of PBS.
Control mice were given PBS alone.
(§2) Mice were given either 20 mg/kg Dexamethasone (Lyppards, Australia) or the equivalent volume of PBS as a single i.p. injection.
(§3) In all experiments, the final day of treatment was designated as Day 0. Mice were then humanely killed by CO2 asphyxiation at various timepoints.
(§4) Each thymus was thoroughly cleaned of fat and connective tissue and its capsule nicked with fine scissors. Each thymus was then incubated at 37° C. for 10 minutes in 2 mL of 0.125% (w/v) Collagenase D with 500 μL of 0.1% (w/v) DNAse I (both from Roche, Germany) in RPMI-1640, with regular agitation. The supernatant was collected, kept on ice, and the digestion repeated using the remaining settled thymic fragments. After 3 digestions, the remaining aggregates were incubated for 10 minutes with 1 mL of 0.125% (w/v) Collagenase/Dispase (Roche, Germany) with 500 μL 0.1% (w/v) DNAse I in RPMI-1640. Cells from all supernatant fractions were then pooled and centrifuged at 472 gmax for 5 minutes, then resuspended in cold EDTA/FACS buffer (5 mM EDTA in PBS with 2% FCS and 0.02% NaN3). Cells were filtered through 100 μm mesh. Cell counts were performed using a Z2 Coulter Counter (Beckman Coulter USA).
(§5) Cells were washed in cold EDTA/FACS buffer and 5×10^6 cells dispensed into 96 well round-bottom plates, Cells were suspended in 50 μL of a primary mAb (hybridoma supernatant or suboptimal dilution of purified antibody) or conjugate for 15 minutes at 4° C. in the dark, followed by a wash step (200 μL EDTA/FACS buffer, 1300 rpm centrifuge for 3 minutes). Secondary mAb were then added and incubated and cells were washed twice. For intracellular staining, cells were washed once in cold PBS then fixed and permeabilised using the BD Cytofix/Cytoperm kit (BD Biosciences, USA) according to the manufacturer's instructions. Cells were stained with 50 μL of primary antibody diluted in PermWash buffer for 30 mins, then washed in PermWash buffer and incubated with secondary antibody where required. Cells were washed in PermWash, then finally washed in FACS buffer, before being resuspended in 200 μL of FACS or EDTA/FACS buffer for acquisition.
(§6) A FACScalibur and CellQuest software (BD Biosciences, USA) were used for flow cytometric analysis, using four fluorescent channels (FL1 for FITC, FL2 for PE, FL3 for CyChrome/PECy5, PerCP and PI, and FL4 for APC). All compensations were performed on single colour labelling of an appropriate cell sample containing both positive and negative populations. Exclusion of non-viable and haemopoietic cells was based on forward light scatter versus side light scatter and CD45 expression respectively.
(§7) In all experiments, the final day of treatment was designated as Day 0. Mice were then humanely killed by CO2 asphyxiation at indicated timepoints.
(§8) Briefly, thymi were agitated in RPMI-1640 to flush out thymocytes. After collecting supernatant, thymic fragments were incubated individually at 37° C. for 10 minutes in 2 mL of 0.125% (w/v) Collagenase D with 500 μL of 0.1% (w/v) DNAse I (both from Roche, Germany) in RPMI-1640, with regular agitation. The supernatant was collected, kept on ice, and the digestion repeated three times, followed by a final 10 minute digestion in 1 mL of 0.125% (w/v) Collagenase/Dispase (Roche, Germany) with 500 μL 0.1% (w/v) DNAse I in RPMI-1640. The supernatant fractions were then pooled and centrifuged, keeping each thymus separate, at 472 gmax for 5 minutes, and resuspended in cold EDTA/FACS buffer (5 mM EDTA in PBS with 2% FCS and 0.02% Sodium Azide). Cells were filtered through 100 μm mesh. Cell counts were performed using a Z2 Coulter Counter (Beckman Coulter USA).

thymocytes [2] = experiment: Thymus cellularity and thymocyte subsets after drug-induced thymus depletion; conditions: mice, i.p. treatment
Method: (§9) Male and female C57B16 mice aged at 4-8 weeks were obtained from Monash Animal Services and housed under SPF conditions.
as §1
Control mice were given PBS alone.
as §2, §3, §4
(§10) Male and female C57B1/6J (B6) mice aged at 8-12 weeks were obtained from Monash Animal Services and housed under SPF conditions, in accordance with institutional guidelines.
as §7, §8

Aire = Aire expression in mTEC during thymic recovery
From the text: Primary antibodies and lectins used were FITC-conjugated UEA-1 lectin (Silenus?), Ki67 (BD), PE-conjugated Ly51 (clone 6C3, Pharmingen) Ki67 (BD), I-A/I-E (BD), CD45 (LCA)(BD), PerCP Cy5.5 conjugated CD45 (BD), APC-conjugated I-A/I-E (Miltenyi), biotinylated CD31 (BD), and EpCAM (G8.8a, prepared in-house from a clone kindly donated by Dr. A. Fan) MTS15 hybridoma supernatant (prepared in-house), rat anti-mouse Aire (a kind gift from Dr. H. Scott). Secondary reagents used were FITC-conjugated anti-rat IgG2c, Streptavidin PerCPCy5.5 and Streptavidin APC.
Antibodies and conjugates were obtained from BD Pharmingen (USA) unless otherwise indicated. […] Secondary antibodies used were anti-rat IgG2c (Southern Biotech, USA), anti-rat IgG2a (Southern Biotech, USA) Streptavidin PerCP Cy5.5 and Streptavidin APC, anti-rabbit IgG-Alexa 488 (Invitrogen, USA).

thymocytes [3] = conditions: mouse, in vivo
Method: as §9, §1
Control mice were given PBS alone.
as §2, §3, §4, §10, §7, §8

thymic epithelial cells [4] = conditions: mouse, in vivo
Method: as §1
Control mice were given PBS alone.
as §2, §3, §4, §5, §6, §7, §8

[5] = days after cessation of treatment

| return of thymic cellularity to untreated levels (thymocytes [3]) | effect on Aire expression (Aire; mouse, in vivo) | recovery of mTEC-hi (thymic epithelial cells [4]) | return of TEC subsets to normal / homeostatic proportions (thymic epithelial cells [4]) | return of cTEC to normal levels / homeostasis (thymic epithelial cells [4]) | Compound | recovery of mTEC-lo cells to normal / untreated levels (thymic epithelial cells [1]; [5]) | return of TEC subsets to normal / homeostatic proportions (thymic epithelial cells [1]; [5]) | effect on TEC subsets (thymic epithelial cells [1]) | effect on TEC subsets (thymic epithelial cells [1]; listed as cyclophosphamide) | effect on non-TEC stromal cells (thymic epithelial cells [1]; mouse, in vivo) | effect on all thymocyte subsets (thymocytes [2]) | effect on thymic cellularity / thymic involution (thymocytes [2]) | effect on Aire expression (Aire; by treatment) | effect on all thymocyte subsets (thymocytes [3]; ip) |
| --- | --- | --- | --- | --- | --- | --- | --- | --- | --- | --- | --- | --- | --- | --- |
| – | – | – | – | – | O=P1(N(CCCl)CCCl)NCCCO1 (centres unmarked) [Cyclophosphamide] | ≤ 28 days | 28 days | mTEC-Hi were proportionally the major subset effected; also recorded: ablated all TEC subsets | TEC as a population are significantly reduced | not effected | marked reduction in all thymocyte subsets | severe thymic involution; also recorded: greatest impact on thymic cellularity | almost completely abrogated | – |
| ≤ 14 days | almost completely abrogated | ≤ 14 days | ≤ 28 days | ≤ 7 days | C[C@@H]1C[C@H]2[C@@H]3CCC4=CC(=O)C=C[C@]4(C)[C@@]3(F)[C@@H](O)C[C@]2(C)[C@@]1(O)C(=O)CO [Dexamethasone] | – | – | – | – | – | – | – | – | marked reduction in all thymocyte subsets |
